From EP1444982A1, “The use of purine derivatives as selective kinase inhibitors” (MERCKLE GMBH, priority 2003, dated 2004) come the findings set out here.

What all share (type): biochemical
The target in one assay is c-RAF (h) (Homo sapiens, UniProt P04049). Kind of assay: Kinase inhibition assay (33P-ATP, P30 filter, scintillation counting): c-RAF. The following applies: 40 min; 30µM Testsubstanz (100 µM ATP); read-out: Hemmung von Kinasen in % c-RAF (h). Here is the method:
(§1) Alle Kinasen werden auf zehnfache Arbeitskonzentration vor Anwendung in dem Essay verdünnt. Die Zusammensetzung des Verdünnungspuffers ist für jede Kinase in der nachfolgenden Tabelle angegeben.
(§2) Alle Substrate werden gelöst und auf eine Stammlösung in entsalztem Wasser verdünnt.
(§3) c-RAF (ha)(5-10 mU) in einem Endreaktionsvolumen von 25 µl wird mit 25 mM Tris pH 7.5,.0.02 mM EGTA, 0.66 mg/ml Myelin-Basisprotein, 10 mM MgAcetat und [γ-^33P-ATP] inkubiert (spezifische Aktivität etwa 50 cpm/pmol, Konzentration wie erforderlich). Die Reaktion wird durch Zugabe von Mg^2+[γ-^33P-ATP] initiiert. Nach 40-minütiger Inkubation bei Raumtemperatur wird die Reaktion durch Zugabe von 5 µl einer 3 %igen Phosphorsäurelösung gestoppt. 10 µl der Reaktion werden dann auf ein P30-Filter gegeben und dreimal jeweils 5 Minuten in 50 mM Phosphorsäure und einmal in Methanol gewaschen. Anschließend wird getrocknet und eine Szintillationszählung durchgeführt.

The target in the next assay is GSK3β (h) (Homo sapiens, UniProt P49841). Kind of assay: Kinase inhibition assay (33P-ATP, P30 filter, scintillation counting): GSK3β. The following applies: 30µM Testsubstanz (100 µM ATP); read-out: Hemmung von Kinasen in % GSK3β (h). Here is the method:
as §1, §2
as §3, with “GSK3β (h)(5-10mU) in” for “c-RAF (ha)(5-10 mU) in”, “mit 8” for “mit 25”, “mM MOPS” for “mM Tris”, “pH 7.0, 0.2” for “pH 7.5,.0.02”, “mM EDTA, 20 µM […](p) EDEEE (phospho GS2 Peptid),” for “mM EGTA, 0.66 mg/ml Myelin-Basisprotein,”, “etwa 500” for “etwa 50”

The target in the next assay is JNK3 (r) (Rattus norvegicus, UniProt P49187). Kind of assay: Kinase inhibition assay: JNK3. Particulars: 30µM Testsubstanz (100 µM ATP); read-out: Hemmung von Kinasen in % JNK3 (r).
Description: as §1, §2

For a further assay, the target named is Lck (h) (Homo sapiens, UniProt P06239). Description: Kinase inhibition assay (33P-ATP, P30 filter, scintillation counting): Lck. The following applies: 30µM Testsubstanz (100 µM ATP); read-out: Hemmung von Kinasen in % Lck (h). As for the experimental part: as §1, §2
as §3, with “Lck (h)(5-10 mU)” for “c-RAF (ha)(5-10 mU)”, “mit 50” for “mit 25”, “pH 7.5, 0.1” for “pH 7.5,.0.02”, “EGTA, 0.1 mM NaVanadate, 250 µM KVEKIGEGTYGVVYK (Cdc2 Peptid),” for “EGTA, 0.66 mg/ml Myelin-Basisprotein,”, “etwa 500” for “etwa 50”

A further assay has as its target MAPK1 (h) (Homo sapiens, UniProt P27361). Description: Kinase inhibition assay: MAPK1. Particulars: 30µM Testsubstanz (100 µM ATP); read-out: Hemmung von Kinasen in % MAPK1 (h).
Description: as §1, §2

In a further assay the target is MAPK2 (h) (Homo sapiens, UniProt P28482). Kind of assay: Kinase inhibition assay: MAPK2. Particulars: 30µM Testsubstanz (100 µM ATP); read-out: Hemmung von Kinasen in % MAPK2 (h).
Description: as §1, §2

In a further assay the target is MEK1 (h) (Homo sapiens, UniProt Q02750). Kind of assay: Kinase inhibition assay: MEK1 (coupled to MAPK2 assay). The following applies: 30µM Testsubstanz (100 µM ATP); read-out: Hemmung von Kinasen in % MEK1 (h). As for the experimental part: as §1, §2
MEK1 (h)(1-5 mU) in einem Endreaktionsvolumen von 25 µl wird mit 50 mM Tris pH 7.5, 0.2 mM EGTA, 0.1 % b-Mercaptoethanol, 0,01 % Brij-35, 1 µM inaktives MAPK2 (m), 10 mM MgAcetat und kaltem ATP inkubiert (Konzentration wie erforderlich). Die Reaktion wird durch Zugabe von MgATB initiiert. Nach 40-minütiger Inkubation bei Raumtemperatur werden […] dieses Inkubationsgemisches dazu verwendet, den oben beschriebenen MAPK2-Assay zu initiieren.

For another assay, the system named is PKA (h). Description: Kinase inhibition assay (33P-ATP, P30 filter, scintillation counting): PKA. The following applies: 30µM Testsubstanz (100 µM ATP); 40 min.
For the next assay, the target named is PKB (h) (Homo sapiens, UniProt P31749). Description: Kinase inhibition assay (33P-ATP, P30 filter, scintillation counting): PKB. The following applies: 40 min; 30µM Testsubstanz (100 µM ATP); read-out: Hemmung von Kinasen in % PKB (h). Here is the method: as §1, §2
as §3, with “PKBα (h)(5-10mU) wird in” for “c-RAF (ha)(5-10 mU) in”, “µl” for “µl wird”, “mit 8” for “mit 25”, “mM MOPS” for “mM Tris”, “pH 7.0, 0.2” for “pH 7.5,.0.02”, “mM EDTRA, 30 µM GRPRTSSFAEGKK,” for “mM EGTA, 0.66 mg/ml Myelin-Basisprotein,”

In the next assay the test system is ROCKII (h). Kind of assay: Kinase inhibition assay (33P-ATP, P30 filter, scintillation counting): ROCK-II. Particulars: 30µM Testsubstanz (100 µM ATP); 40 min.
For the next assay, the target named is SAPK2a (h) (Homo sapiens, UniProt Q16539). Description: Kinase inhibition assay (33P-ATP, P30 filter, scintillation counting): SAPK2a. The following applies: 30µM Testsubstanz (100 µM ATP); read-out: Hemmung von Kinasen in % SAPK2a (h). As for the experimental part:
as §1, §2
as §3, with “SAPK2a (h) wird” for “c-RAF (ha)(5-10 mU)”, “µl” for “µl wird”, “7,5, 0.02” for “7.5,.0.02”, “0.33” for “0.66”

MAPK1 (h), sequence (P27361 whole entry): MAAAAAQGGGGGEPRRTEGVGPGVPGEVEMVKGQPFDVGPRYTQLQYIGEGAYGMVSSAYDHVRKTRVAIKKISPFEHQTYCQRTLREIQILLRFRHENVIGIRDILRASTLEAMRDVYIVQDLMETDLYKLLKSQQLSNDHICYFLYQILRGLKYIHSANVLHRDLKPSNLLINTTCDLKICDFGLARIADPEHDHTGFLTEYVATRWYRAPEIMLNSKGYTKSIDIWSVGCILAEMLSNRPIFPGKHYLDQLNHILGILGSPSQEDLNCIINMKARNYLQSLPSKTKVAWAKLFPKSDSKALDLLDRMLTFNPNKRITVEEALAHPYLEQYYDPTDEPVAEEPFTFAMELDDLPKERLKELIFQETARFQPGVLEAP
Lck (h), sequence (P06239 whole entry): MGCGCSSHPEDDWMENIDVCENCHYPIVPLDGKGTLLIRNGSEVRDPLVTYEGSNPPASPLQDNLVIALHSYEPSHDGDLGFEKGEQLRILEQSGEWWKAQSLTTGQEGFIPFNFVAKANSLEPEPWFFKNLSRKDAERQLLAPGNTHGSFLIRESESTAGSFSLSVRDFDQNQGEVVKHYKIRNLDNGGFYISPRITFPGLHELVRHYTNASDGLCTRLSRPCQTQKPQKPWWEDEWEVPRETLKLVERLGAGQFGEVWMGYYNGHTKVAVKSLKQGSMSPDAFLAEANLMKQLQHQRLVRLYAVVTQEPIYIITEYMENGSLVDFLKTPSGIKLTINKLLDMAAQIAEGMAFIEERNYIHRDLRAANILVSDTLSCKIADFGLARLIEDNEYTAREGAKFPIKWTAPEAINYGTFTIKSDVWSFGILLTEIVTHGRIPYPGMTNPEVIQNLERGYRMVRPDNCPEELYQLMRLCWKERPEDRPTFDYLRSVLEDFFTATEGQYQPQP
JNK3 (r), sequence (P49187 whole entry): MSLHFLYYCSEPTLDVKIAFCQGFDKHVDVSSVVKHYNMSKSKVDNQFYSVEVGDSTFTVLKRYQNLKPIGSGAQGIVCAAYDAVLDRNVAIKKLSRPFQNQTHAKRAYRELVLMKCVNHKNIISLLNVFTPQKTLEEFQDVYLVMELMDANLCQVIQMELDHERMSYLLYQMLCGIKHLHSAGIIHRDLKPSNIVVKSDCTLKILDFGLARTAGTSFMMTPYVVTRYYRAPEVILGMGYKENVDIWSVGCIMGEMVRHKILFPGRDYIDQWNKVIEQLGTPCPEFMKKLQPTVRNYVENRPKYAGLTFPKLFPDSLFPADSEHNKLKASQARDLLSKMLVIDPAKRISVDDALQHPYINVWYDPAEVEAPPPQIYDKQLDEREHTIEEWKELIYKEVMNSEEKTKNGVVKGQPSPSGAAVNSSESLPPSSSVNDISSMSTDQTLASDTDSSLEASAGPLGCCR
GSK3β (h), sequence (P49841 whole entry): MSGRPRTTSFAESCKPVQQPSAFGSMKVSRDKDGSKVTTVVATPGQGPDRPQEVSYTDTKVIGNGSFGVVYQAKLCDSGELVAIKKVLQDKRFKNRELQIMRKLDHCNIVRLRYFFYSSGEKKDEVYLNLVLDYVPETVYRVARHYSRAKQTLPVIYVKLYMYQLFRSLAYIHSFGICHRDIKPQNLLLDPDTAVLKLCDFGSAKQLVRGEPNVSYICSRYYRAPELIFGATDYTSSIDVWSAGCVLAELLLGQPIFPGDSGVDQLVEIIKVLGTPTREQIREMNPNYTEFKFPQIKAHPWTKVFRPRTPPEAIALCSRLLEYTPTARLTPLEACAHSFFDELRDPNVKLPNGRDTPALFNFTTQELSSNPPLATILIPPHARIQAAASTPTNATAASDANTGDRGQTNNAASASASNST
MEK1 (h), sequence (Q02750 whole entry): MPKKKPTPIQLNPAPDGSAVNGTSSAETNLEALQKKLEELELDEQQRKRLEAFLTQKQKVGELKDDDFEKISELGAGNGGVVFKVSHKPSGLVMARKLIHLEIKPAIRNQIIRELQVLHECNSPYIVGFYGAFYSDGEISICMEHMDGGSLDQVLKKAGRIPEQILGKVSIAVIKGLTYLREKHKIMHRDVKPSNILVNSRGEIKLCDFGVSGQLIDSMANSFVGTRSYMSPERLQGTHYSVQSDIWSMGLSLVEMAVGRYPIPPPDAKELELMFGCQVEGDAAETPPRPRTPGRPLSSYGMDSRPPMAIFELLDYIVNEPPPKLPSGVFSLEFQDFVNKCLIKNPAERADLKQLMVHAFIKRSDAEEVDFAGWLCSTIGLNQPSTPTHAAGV
MAPK2 (h), sequence (P28482 whole entry): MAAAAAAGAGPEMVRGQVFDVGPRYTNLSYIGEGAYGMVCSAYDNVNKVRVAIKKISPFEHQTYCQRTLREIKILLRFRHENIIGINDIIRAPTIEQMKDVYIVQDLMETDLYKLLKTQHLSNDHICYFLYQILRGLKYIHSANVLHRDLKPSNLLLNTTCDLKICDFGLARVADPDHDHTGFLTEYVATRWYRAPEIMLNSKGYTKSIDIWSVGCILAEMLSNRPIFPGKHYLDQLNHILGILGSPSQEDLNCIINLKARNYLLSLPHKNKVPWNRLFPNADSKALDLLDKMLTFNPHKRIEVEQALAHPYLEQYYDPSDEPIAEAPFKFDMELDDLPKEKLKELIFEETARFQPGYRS
SAPK2a (h), sequence (Q16539 whole entry): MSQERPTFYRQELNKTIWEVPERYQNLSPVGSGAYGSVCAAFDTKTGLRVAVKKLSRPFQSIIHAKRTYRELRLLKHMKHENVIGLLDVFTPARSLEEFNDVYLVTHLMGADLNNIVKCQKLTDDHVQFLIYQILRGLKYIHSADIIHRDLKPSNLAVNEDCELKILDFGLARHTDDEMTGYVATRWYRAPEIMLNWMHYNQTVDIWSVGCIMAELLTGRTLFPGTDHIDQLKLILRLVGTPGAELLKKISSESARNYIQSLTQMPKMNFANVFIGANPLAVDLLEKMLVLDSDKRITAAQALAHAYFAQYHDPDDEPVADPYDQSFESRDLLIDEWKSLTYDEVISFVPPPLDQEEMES
c-RAF (h), sequence (P04049 whole entry): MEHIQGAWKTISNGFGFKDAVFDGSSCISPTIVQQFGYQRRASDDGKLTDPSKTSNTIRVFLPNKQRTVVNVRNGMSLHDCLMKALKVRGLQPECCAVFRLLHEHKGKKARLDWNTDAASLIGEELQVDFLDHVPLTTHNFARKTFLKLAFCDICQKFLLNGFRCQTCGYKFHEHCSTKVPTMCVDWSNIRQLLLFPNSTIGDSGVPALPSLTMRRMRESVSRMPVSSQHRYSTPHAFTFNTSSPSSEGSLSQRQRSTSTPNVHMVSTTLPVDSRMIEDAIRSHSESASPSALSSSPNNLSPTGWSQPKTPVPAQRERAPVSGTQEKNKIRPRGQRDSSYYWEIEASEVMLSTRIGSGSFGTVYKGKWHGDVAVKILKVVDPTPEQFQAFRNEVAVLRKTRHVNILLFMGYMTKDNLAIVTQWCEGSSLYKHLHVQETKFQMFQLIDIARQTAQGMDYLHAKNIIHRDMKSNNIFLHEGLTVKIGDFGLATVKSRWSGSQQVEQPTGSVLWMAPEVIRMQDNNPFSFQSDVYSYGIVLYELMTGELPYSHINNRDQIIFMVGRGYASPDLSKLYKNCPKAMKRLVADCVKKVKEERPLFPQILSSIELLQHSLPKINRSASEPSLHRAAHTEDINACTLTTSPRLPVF
PKB (h), sequence (P31749 whole entry): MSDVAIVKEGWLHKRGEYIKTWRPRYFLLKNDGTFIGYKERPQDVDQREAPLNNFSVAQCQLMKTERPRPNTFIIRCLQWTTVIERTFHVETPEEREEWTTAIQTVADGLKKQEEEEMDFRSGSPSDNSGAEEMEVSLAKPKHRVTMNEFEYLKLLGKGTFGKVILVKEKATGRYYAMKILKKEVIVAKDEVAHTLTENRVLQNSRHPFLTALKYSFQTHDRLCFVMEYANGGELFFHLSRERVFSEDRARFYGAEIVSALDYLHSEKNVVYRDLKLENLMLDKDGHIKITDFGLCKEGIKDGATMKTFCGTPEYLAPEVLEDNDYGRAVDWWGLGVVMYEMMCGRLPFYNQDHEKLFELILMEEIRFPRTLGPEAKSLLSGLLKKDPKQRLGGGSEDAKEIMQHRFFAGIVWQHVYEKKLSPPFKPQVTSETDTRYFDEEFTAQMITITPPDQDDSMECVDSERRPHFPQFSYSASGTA

Consider `C(=Cc1ncnc2[nH]cnc12)c1ccccc1` [Verbd. 72, 6-Styryl-9H-purin], for which the inhibition at 30 µM at c-RAF (h) was 66%; on GSK3β (h), 20%; on JNK3 (r) it was 2%; on Lck (h) it was 37%; at MAPK1 (h), 50%; at MAPK2 (h) it was 20%. Moreover, the inhibition at 30 µM at MEK1 (h) came out at 7%; at PKB (h) it was 7%; at SAPK2a (h), 17%. In the assay with PKA (h), the “Hemmung von Kinasen in % PKA (h)” value is reported as 4%. Also, the “Hemmung von Kinasen in % ROCKII (h)” value with ROCKII (h) amounted to 22%.

With `Fc1ccc(Sc2ncnc3c2ncn3Cc2ccccc2)cc1` [Verbd. 75, 9-Benzyl-6-(4-fluoro-phenylsulfanyl)-9H-purin], the inhibition at 30 µM was 0% on c-RAF (h); 0% on GSK3β (h); 0% at JNK3 (r); 16% at Lck (h); 0% on MAPK1 (h); 0% at MAPK2 (h). Also, the inhibition at 30 µM on MEK1 (h) amounted to 4%; on PKB (h) it was 1%; on SAPK2a (h), 64%. For the same compound, the “Hemmung von Kinasen in % PKA (h)” value in the assay on PKA (h) amounted to 0%. For the same compound, in the assay on ROCKII (h), the “Hemmung von Kinasen in % ROCKII (h)” value turned out to be 5%.

With `Cn1c(C#CCCO)nc2c(Sc3ccccc3)ncnc21` [Verbd. 79, 4-(9-Methyl-6-phenylsulfanyl-9H-purin-8-yl)-but-3-yn-1-ol], the inhibition at 30 µM on c-RAF (h) was 0%; at GSK3β (h), 0%; at JNK3 (r), 0%; on Lck (h), 11%; at MAPK1 (h) it was 0%; at MAPK2 (h), 0%. The inhibition at 30 µM on MEK1 (h) was determined as 0%; on PKB (h), 33%; at SAPK2a (h) it was 3%. The “Hemmung von Kinasen in % PKA (h)” value in the assay with PKA (h) is reported as 0%. The “Hemmung von Kinasen in % ROCKII (h)” value in the assay on ROCKII (h) is recorded as 0%.

On to `Cn1c(-c2ccccc2)nc2c(-c3ccc(F)cc3)ncnc21` [Verbd. 41, 6-(4-Fluoro-phenyl)-9-methyl-8-phenyl-9H-purin], for which the inhibition at 30 µM on c-RAF (h) is 24%; at GSK3β (h), 26%; at JNK3 (r), 12%; on Lck (h) it was 17%; on MAPK1 (h), 20%; at MAPK2 (h), 1%. Besides, the values for the inhibition at 30 µM on MEK1 (h), on PKB (h) and at SAPK2a (h) were 5%, 31% and 23%, respectively. The “Hemmung von Kinasen in % PKA (h)” value with PKA (h) was found to be 0%. Moreover, the “Hemmung von Kinasen in % ROCKII (h)” value in the assay on ROCKII (h) was determined as 0%.

`Fc1ccc(CSc2ncnc3[nH]cnc23)cc1` [Verbd. 10, 6-(4-Fluoro-benzylsulfanyl)-9H-purin]: the inhibition at 30 µM on c-RAF (h) was 47%; on GSK3β (h), 0%; at JNK3 (r), 12%; on Lck (h), 16%; at MAPK1 (h), 9%; on MAPK2 (h), 5%. Moreover, the inhibition at 30 µM at MEK1 (h) worked out at 0%; at PKB (h) it was 6%; at SAPK2a (h), 29%. In addition, the “Hemmung von Kinasen in % ROCKII (h)” value in the assay on ROCKII (h) was 18%.

For `c1ccc(CSc2ncnc3[nH]cnc23)cc1` [Verbd. 9, 6-Benzylsulfanyl-9H-purin], the inhibition at 30 µM on c-RAF (h) is 53%; at GSK3β (h), 35%; at JNK3 (r), 7%; at Lck (h), 22%; on MAPK1 (h), 15%; on MAPK2 (h) it was 12%. Further, the inhibition at 30 µM at MEK1 (h) was found to be 7%; at PKB (h) it was 4%; on SAPK2a (h), 50%. Besides, the “Hemmung von Kinasen in % PKA (h)” value with PKA (h) worked out at 13%. The “Hemmung von Kinasen in % ROCKII (h)” value with ROCKII (h) is 28%.

In the case of `c1ccc(Sc2ncnc3[nH]cnc23)cc1` [Verbd. 15, 6-Phenylsulfanyl-9H-purin], the inhibition at 30 µM at c-RAF (h) is 6%; at GSK3β (h), 1%; at JNK3 (r) it was 0%; on Lck (h), 5%; at MAPK1 (h) it was 3%; on MAPK2 (h), 13%. The inhibition at 30 µM is 0% on MEK1 (h), 0% at PKB (h) and 54% on SAPK2a (h). The “Hemmung von Kinasen in % PKA (h)” value in the assay on PKA (h) was 8%. Further, the “Hemmung von Kinasen in % ROCKII (h)” value in the assay with ROCKII (h) is reported as 33%.

With `Cn1c(-c2ccc(S(C)(=O)=O)cc2)nc2c(Sc3ccccc3)ncnc21` [Verbd. 62, 8-(4-Methansulfonyl-phenyl)-9-methyl-6-phenylsulfanyl-9H-purin], the inhibition at 30 µM at c-RAF (h) amounted to 10%; on GSK3β (h), 0%; at JNK3 (r), 7%; on Lck (h), 16%; on MAPK1 (h), 9%; on MAPK2 (h), 3%. Further, the results for the inhibition at 30 µM at MEK1 (h), on PKB (h) and at SAPK2a (h) were 4%, 14% and 36%, respectively. In addition, in the assay with PKA (h), the “Hemmung von Kinasen in % PKA (h)” value came to 11%. In addition, the “Hemmung von Kinasen in % ROCKII (h)” value in the assay on ROCKII (h) was 5%.

On to `Fc1ccc(Cn2cnc3c(Sc4ccc(F)cc4)ncnc32)cc1` [Verbd. 77, 9-(4-Fluoro-benzyl)-6-(4-fluoro-phenylsulfanyl)-9H-purin], for which the inhibition at 30 µM was found to be 0% at c-RAF (h); 8% on GSK3β (h); 0% on JNK3 (r); 16% on Lck (h); 6% on MAPK1 (h); 0% at MAPK2 (h). The inhibition at 30 µM was 3% on MEK1 (h), 0% at PKB (h) and 27% at SAPK2a (h). Also, in the assay on PKA (h), the “Hemmung von Kinasen in % PKA (h)” value is 0%. The “Hemmung von Kinasen in % ROCKII (h)” value in the assay on ROCKII (h) stood at 0%.
